No end group written: not given here.
Experiments:
S.a. 3255 biofilm = experiment: Biofilm-oriented antimicrobial test (BOAT), MIC50 in biofilms; type: cell-based, Staphylococcus aureus
Procedure: (§1) Synergistic interactions between antimicrobials were determined using the fractional inhibition concentration (FIC). The FIC values were calculated as follows: the sum of the FIC =FICa+FICb+FICc, where the FICa means MIC of A in combination/MIC of A alone, FICb means MIC of B in combination/MIC of B, and FICc means MIC of C in combination/MIC of C alone. Effects were considered as synergistic if FIC was ≤0.5 for two components mixture and ≤0.75 for three components mixture.
(§2) Staphylococcus aureus strains were inoculated in 5 ml of TSB and incubated O/N at 37° C. Ten μl of the O/N cultures were then inoculated in 90 μl of TSB supplemented with 1% glucose and 1% NaCl (TSB-GN) in the appropriate wells of a 96-well microtiter plate (Sarstedt) to a final volume of 100 μl. The plates were then incubated at 37° C. for 24 h. After the incubation, the presence of the biofilm at the bottom of the wells was assessed visually.
(§3) The BOAT assay was performed as described previously (Gronseth et al., 2017, Int. J. Pediatr. Otorhinolaryngol., Vol. 103, p 58-64) with some modifications. The serial dilutions of the antimicrobials were prepared in challenge plates as follows: 175 μl of TSB were transferred in each row of a 96-well microtiter plate, except for the first row, according to the number of microbial strains to treat. In the first row of the plate, the antimicrobials were diluted to their respective working concentrations in a final volume of 350 μl of TSB. From the first row, 175 μl of the antimicrobial dilutions were then transferred to the second row of the plate and further serially diluted to the bottom of the plate. The same procedure was followed to prepare the controls, except that instead of the antimicrobials an equivalent volume of the respective vehicles were used. The biofilms were allowed to form for 24 h and then washed twice with 100 μl of sterile saline buffer and a total of 150 μl of the antimicrobial and control dilutions were transferred from the challenge plate to the corresponding wells of the biofilm plate. The challenged biofilms were then incubated for an additional 24 h at 37° C. After the challenge period, the antimicrobial dilutions were removed and the biofilms were carefully washed three times with 150 μl of sterile saline buffer. A total of 100 μl of TSB supplemented with 0.025% of triphenyl-tetrazolium chloride (TTC, Sigma) were then added to each well of the plate and further incubated at 37° C. for 5h. The results were then assessed by monitoring the development (or not) of red formazan (red colour), denoting the retention of metabolic activity by bacterial cells (Moussa et al., 2013, J. Mycol., Vol. 2013; Perez et al., 2010, Lett. Appl. Microbiol., Vol. 51, p 331-337). The medium was then removed and 200 μl of an ethanol:acetone (70:30) mixture was added to the wells and incubated O/N in order to extract the red formazan. The amount of extracted dye, reflecting the degree of bacterial cell metabolic activity, was then quantified by spectrophotometric readings at 492 nm.

[1] = system: S. aureus USA 300 biofilm; experiment: as above; type: cell-based, Staphylococcus aureus
Procedure: as §1, §2, §3

[2] = system: S. aureus ATTC 33591 biofilm; experiment: as above; type: cell-based, Staphylococcus aureus; settings: ATTC 33591, biofilm
Procedure: as §1, §2, §3

S. haemolyticus 4068 = experiment: microbe, parasite or virus in culture; settings: for MIC of the component in combination: 4068
Procedure: (§4) Growth inhibition assays were performed in 96-well microtiter plates as described previously (Chi and Holo, 2018, supra). Briefly, 135 μl of TSB were dispensed in each well of a microtiter plate (according to the number of bacterial strains tested) except in the wells of the first row. The antimicrobials were diluted in TSB to working concentrations in a final volume of 285 μl and dispensed in the wells of the first row. The working concentrations were 100 μg/μl for garvicin KS, 10 μg/μl for micrococcin P1 and 1 mg/ml for penicillin G. From the first row, 150 μl of the antimicrobials were then serially diluted (two-fold dilutions) in a sequential fashion until the last row of the plate. Finally, 15 μl of a fresh O/N culture of each strain were added in the appropriate wells to reach a final volume of 150 μl in each well. The plates were then incubated at 37° C. for 24 h. The growth inhibition was expressed as minimum inhibitory concentration (MIC50), which refers to the minimum concentration of the antimicrobial needed to reduce at least 50% of the microbial growth compared to the untreated control. The MIC50 was assessed by optical density readings at 600 nm (O.D.600).
as §1
(§5) Bacteriocins and antimicrobial assays. […] These bacteriocins were all solubilized in 0.1% (vol/vol) trifluoracetic acid (TFA; Sigma-Aldrich). […] Cell growth inhibition assays and antimicrobial synergy determination was performed in line with Example 1.
(§6) To investigate whether there was synergy between the three bacteriocins (K1-EJ, GarKS and MP1), a checkboard antimicrobial assay was performed. The selected strains were treated for 5, 24 and 48 h with a range of concentrations of K1-EJ, GarKS and MP1 alone or in different combinations.

S. haemolyticus 4072 = experiment: microbe, parasite or virus in culture; settings: for MIC of the component in combination: 4072
Procedure: as §4, §1, §5, §6

S. haemolyticus 4069 = experiment: microbe, parasite or virus in culture; settings: for MIC of the component in combination: 4069
Procedure: as §4, §1, §5, §6

[3] = garvicin KS + micrococcin P1 + penicillin G

CC1(C)S[C@@H]2[C@H](NC(=O)Cc3ccccc3)C(=O)N2[C@H]1C(=O)O [Penicillin G]
MIC50 (S.a. 3255 biofilm; Staphylococcus aureus, individual component, read-out: MIC50): 10000 µg/mL
MIC50 of the component in combination (S.a. 3255 biofilm; [3]): 630 µg/mL
MIC50 of the component in combination (S.a. 3255 biofilm; garvicin KS + penicillin G): 630 µg/mL
MIC50 ([1]; Staphylococcus aureus, USA300, individual component, read-out: MIC50): > 10000 µg/mL
MIC50 of the component in combination [1, 3]: 10000 µg/mL
MIC50 of the component in combination ([1]; garvicin KS + penicillin G): >10000 µg/mL
MIC50 of the component in combination [2, 3]: 10000 µg/mL
MIC50 of the component in combination ([2]; garvicin KS + penicillin G): >10000 µg/mL
MIC50 ([2]; Staphylococcus aureus, ATTC33591BIOFILM, individual component, read-out: MIC50): > 10000 µg/mL

MKFKFNPTGTIVKKLTQYEINWYKQQYGRYPWERPVA [Hybrid K1-EJ]
MIC (S. haemolyticus 4068; 4068, 5 h): 0.78 µg/mL
MIC (S. haemolyticus 4068; 4068, 24 h): >100 µg/mL
MIC (S. haemolyticus 4068; 4068, 48 h): >100 µg/mL
MIC of the component in combination (S. haemolyticus 4068; 5 h, K1-EJ + GarKS): 0.83 µg/mL
MIC of the component in combination (S. haemolyticus 4068; 5 h, K1-EJ + GarKS + MP1): 0.32 µg/mL
MIC of the component in combination (S. haemolyticus 4068; 5 h, K1-EJ + MP1): 0.2 µg/mL
MIC of the component in combination (S. haemolyticus 4068; 24 h, K1-EJ + GarKS): 3.1 µg/mL
MIC of the component in combination (S. haemolyticus 4068; 24 h, K1-EJ + GarKS + MP1): 0.78 µg/mL
MIC of the component in combination (S. haemolyticus 4068; 24 h, K1-EJ + MP1): 0.78 µg/mL
MIC of the component in combination (S. haemolyticus 4068; 48 h, K1-EJ + GarKS): 6 µg/mL
MIC of the component in combination (S. haemolyticus 4068; 48 h, K1-EJ + GarKS + MP1): 2.8 µg/mL
MIC of the component in combination (S. haemolyticus 4068; 48 h, K1-EJ + MP1): 0.72 µg/mL
MIC (S. haemolyticus 4072; 4072, 5 h): 0.78 µg/mL
MIC (S. haemolyticus 4072; 4072, 24 h): >100 µg/mL
MIC (S. haemolyticus 4072; 4072, 48 h): >100 µg/mL
MIC of the component in combination (S. haemolyticus 4072; 5 h, K1-EJ + GarKS): 1.5 µg/mL
MIC of the component in combination (S. haemolyticus 4072; 5 h, K1-EJ + GarKS + MP1): 0.68 µg/mL
MIC of the component in combination (S. haemolyticus 4072; 5 h, K1-EJ + MP1): 0.36 µg/mL
MIC of the component in combination (S. haemolyticus 4072; 24 h, K1-EJ + GarKS): 12 µg/mL
MIC of the component in combination (S. haemolyticus 4072; 24 h, K1-EJ + GarKS + MP1): 1.6 µg/mL
MIC of the component in combination (S. haemolyticus 4072; 24 h, K1-EJ + MP1): 1.5 µg/mL
MIC of the component in combination (S. haemolyticus 4072; 48 h, K1-EJ + GarKS): 13 µg/mL
MIC of the component in combination (S. haemolyticus 4072; 48 h, K1-EJ + GarKS + MP1): 5.8 µg/mL
MIC of the component in combination (S. haemolyticus 4072; 48 h, K1-EJ + MP1): 1.6 µg/mL
MIC (S. haemolyticus 4069; 4069, 5 h): 0.78 µg/mL
MIC (S. haemolyticus 4069; 4069, 24 h): 0.78 µg/mL
MIC (S. haemolyticus 4069; 4069, 48 h): >100 µg/mL
MIC of the component in combination (S. haemolyticus 4069; 5 h, K1-EJ + GarKS): 1.4 µg/mL
MIC of the component in combination (S. haemolyticus 4069; 5 h, K1-EJ + GarKS + MP1): 0.68 µg/mL
MIC of the component in combination (S. haemolyticus 4069; 5 h, K1-EJ + MP1): 1.5 µg/mL
MIC of the component in combination (S. haemolyticus 4069; 24 h, K1-EJ + GarKS): 6 µg/mL
MIC of the component in combination (S. haemolyticus 4069; 24 h, K1-EJ + GarKS + MP1): 3.3 µg/mL
MIC of the component in combination (S. haemolyticus 4069; 24 h, K1-EJ + MP1): 23 µg/mL
MIC of the component in combination (S. haemolyticus 4069; 48 h, K1-EJ + GarKS): 6.5 µg/mL
MIC of the component in combination (S. haemolyticus 4069; 48 h, K1-EJ + GarKS + MP1): 5.8 µg/mL
MIC of the component in combination (S. haemolyticus 4069; 48 h, K1-EJ + MP1): 48 µg/mL
